Values of other authors, collected in patent EP4302832A1, “PALBOCICLIB FORMULATION CONTAINING GLUCONO DELTA LACTONE” (Lotus Pharmaceutical Co., Ltd., priority 2022, dated 2024).
Read-outs that look alike come from different tables or passages of the source.

Experiments:
[1] = low pH (2.1-4.5)

Which pKa (the pyridine nitrogen) does the source give for CC(=O)c1c(C)c2cnc(Nc3ccc(N4CCNCC4)cn3)nc2n(C2CCCC2)c1=O [Palbociclib, 6-acetyl-8-cyclopentyl-5-methyl-2-(5-piperazin-1-yl-pyridin-2-ylamino)-8H-pyrido[2,3-d]-pyrimidin-7-one] here?
Its pKa is roughly 4.1.

What about the pKa (the secondary piperazine nitrogen) of the same compound?
Its pKa is “approximately 7.3”.

What about the solubility [1] of the same compound?
The solubility was “water soluble”.
